From patent publication US11041205B2, “Molecular targets for ALS and related disorders” (Northwestern University, priority 2010, dated 2021) come the findings set out here.

This test concerns Ub^G76V-GFP reporter (ubiquitin-proteasome system) in transiently transfected cells. Description: UPS reporter assay (Ub^G76V-GFP, flow cytometry), functionality control with proteasomal inhibitor. In kind it is cell-based. The conditions noted are these: 5 μM MG-132, 24 hours. On the procedure: FIGS. 12A-12C show flow-cytometric analysis of untransfected cells (12A), Ub^G76V-GFP transfected cells (12B), and Ub^G76V-GFP transfected cells treated for 24 hours with 5 μM of the proteasomal inhibitor, MG-132 (12C).
Experiments were conducted during development of embodiments of the present invention to investigate the functional consequences of the mutant ubiquilin2 in protein degradation through the ubiquitin-proteasome system (UPS) was investigated. The UPS reporter substrate Ubiquitin^G76V-Green Fluorescent Protein (Ub^G76V-GFP) was used to test the effects of mutant ubiquilin2 on the ubiquitin-mediated protein degradation. Two mutations at two different sites were tested (P497H and P506T) using the Ub^G76V-GFP reporter system. […]
SH-SYSY and Neuro2a cells were grown in 24-well plates and double-transfected with the UPS reporter (20) vector containing UbG76V-GFP (Addgene plasmid #11941) and a dual expression vector containing DsRed2 with either wild-type or mutant Ubiquilin 2. […] All flow cytometric data were collected and analyzed using a MoFlo cell sorter and Summit software (DakoCytomation, Fort Collins, Colo.). […] At least 500 such events were recorded. […]

Structures are written as SMILES. “Also recorded” adds a separate entry of the source. Peptide text beside a SMILES is read from it. * marks the point of attachment. Cbz = O=C(OCc1ccccc1)*

On to `CC(C)C[C@@H](C=O)NC(=O)[C@H](CC(C)C)NC(=O)[C@H](CC(C)C)NC(=O)OCc1ccccc1` [MG-132] (Cbz-Leu-Leu-Leu-aldehyde), for which the “GFP fluorescence (FL1) intensity / accumulation of the Ub^G76V-GFP signal” value is given as “marked increase in GFP fluorescence (FL1) intensity; also recorded: remarkable accumulation of the Ub^G76V-GFP signal”.
